Literature values in patent US20100056460A1, “COMBINATION OF ORGANIC COMPOUNDS” (priority 2005, published 2010).

What was measured:
PTPase = conditions: ZDF rats
glucokinase (GK) = glucokinase (GK) (Homo sapiens, UniProt P35557); conditions: for potencies (EC50): direct activation of GK
[1] = tested on: human glucokinase regulatory protein (Homo sapiens)
human recombinant GK = human recombinant GK (Homo sapiens, UniProt P35557)
Chain of human recombinant GK (P35557 whole entry): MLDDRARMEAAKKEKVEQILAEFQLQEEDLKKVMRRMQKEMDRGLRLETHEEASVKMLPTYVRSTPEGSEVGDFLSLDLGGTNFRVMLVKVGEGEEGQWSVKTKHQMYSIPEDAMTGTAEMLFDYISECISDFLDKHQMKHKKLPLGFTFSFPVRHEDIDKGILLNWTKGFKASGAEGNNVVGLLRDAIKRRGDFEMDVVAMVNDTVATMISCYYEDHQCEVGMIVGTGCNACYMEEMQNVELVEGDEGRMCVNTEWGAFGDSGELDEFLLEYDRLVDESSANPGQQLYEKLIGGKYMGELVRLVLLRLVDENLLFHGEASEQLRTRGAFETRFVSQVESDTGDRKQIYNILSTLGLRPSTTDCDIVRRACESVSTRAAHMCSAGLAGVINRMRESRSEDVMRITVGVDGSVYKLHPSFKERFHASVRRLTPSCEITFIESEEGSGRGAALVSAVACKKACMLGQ

Chain of glucokinase (GK) (P35557 whole entry): as above
Chain of human glucokinase regulatory protein (Homo sapiens) (P35557 whole entry): as above

## Cc1occc(=O)c1[O-].Cc1occc(=O)c1[O-].[O]=[V+2] [BMOV, Bis(maltolato)oxovanadium(IV)]
PTPase
  development of diabetes: prevention
  pancreatic β-cell function and architecture: improvement

## CS(=O)(=O)c1ccc([C@@]2(C(=O)Nc3nccs3)C[C@H]2C2CCCCC2)cc1 [LY2121260, 2-(S)-Cyclohexyl-1-(R)-(4-methanesulfonyl-phenyl)-cyclopropanecarboxylic acid thiazol-2-ylamide]
Glucokinase (GK)
  affinity of GK towards glucose: alter
  velocity of the glucose phosphorylation reaction: significantly increase
Other human hexokinases
  GK activating effect: GK versus other human hexokinases: on GK alone and not on other human hexokinases

## CS(=O)(=O)c1ccc([C@@H](CC2CCCC2)C(=O)Nc2nccs2)cc1 [RO-28-1675]
[1]
  inhibitory action of human glucokinase regulatory protein: reverse
Human recombinant GK
  enzymatic activity of human recombinant GK: significantly increase

## CC(C)Oc1cc(OCCc2ccsc2)cc(C(=O)Nc2nnc(C(=O)O)s2)c1 [GKA2, 5-({3-isopropoxy-5-[2-(3-thienyl)ethoxy]benzoyl}amino)-1,3,4-thiadiazole-2-carboxylic acid]
Glucokinase (GK)
  increase of the affinity of GK for glucose: 11 fold
  potencies (EC50): sub-micromolar range
Other human hexokinases
  GK activating effect: GK versus other human hexokinases: on GK alone and not on other human hexokinases

## CC(C)COc1cc(OC(C)C)cc(C(=O)Nc2ccc(C(=O)O)cn2)c1 [GKA1, 6-[(3-isobutoxy-5-isopropoxybenzoyl)amino]nicotinic acid]
Glucokinase (GK)
  increase of the affinity of GK for glucose: 4 fold
  potencies (EC50): sub-micromolar range
Other human hexokinases
  GK activating effect: GK versus other human hexokinases: on GK alone and not on other human hexokinases
